Reference: paper PMC13376213, “Systematic discovery of motif-based interactions of the auxiliary domains of USP family deubiquitinases” (Nature Communications, 2026)
Residue numbers refer to the chain shown, from its start. Like-named read-outs stand apart in the source and are kept apart here. Peptide text beside a SMILES is read from it. * marks the point of attachment. FITC = O=C1OC2(c3ccc(O)cc3Oc3cc(O)ccc32)c2ccc(NC(=S)*)cc21

What was measured:
[1] = target: T1, USP33 DUSP2 N835A (Homo sapiens, UniProt Q8TEY7, N835A); assay: FP-monitored affinity measurements, USP33 DUSP2 single mutant; type: binding
T1 construct: USP33_DUSP2; Q8TEY7; DUSP2; 806; 921; 6xHis-GST (N, cleaved yes); made in house; host or cells: Escherichia coli BL21-Gold (DE3)
T1 sequence (Q8TEY7 806-921 N835A): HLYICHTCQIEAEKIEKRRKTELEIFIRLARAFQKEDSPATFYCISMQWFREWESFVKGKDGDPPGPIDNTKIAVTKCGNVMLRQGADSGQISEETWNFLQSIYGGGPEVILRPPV
Description: (§1) Proteins were expressed in Escherichia coli (E.coli) BL21-Gold (DE3) bacteria. The cDNAs encoding N-terminal 6-histidine-glutathione S-transferase tagged (6xHis-GST), 6xHis-tagged or GST-tagged protein domains in pETM33, pETM11, pGEX6P1 expression vectors respectively, were obtained from Genescript or kindly provided by MRC-PPU (Suppl. Data 1) The bacteria were transformed with the plasmid and grew at 37 °C in 2YT (5 g/L NaCl, 16 g/L tryptone and 10 g/L yeast extract) supplemented with Kanamycin (30 μg/mL) until reaching an OD600 of 0.7. Protein expression was induced with 0.3 mM isopropyl β-D-1 thiogalactopyranoside (IPTG) for 18 h at 18 °C while shaking. For zinc-finger domains, 50 μM of ZnSO4 was added during expression. […] For fluorescence polarization experiments, the proteins were not eluted from the beads, and the 6xHis-GST tag was cleaved overnight on GSH Sepharose beads at 4 °C while shaking with PreScission Protease in cleavage buffer (50 mM Tris pH 7.5, 150 mM NaCl, 1 mM DTT). […] The purity and size of the proteins were analyzed by SDS-PAGE electrophoresis.
(§2) The measurements were performed at room temperature in a non-binding black half area 96-well plate (Corning) with a total volume of 50 μL per well. […] The data were analyzed using GraphPad Prism version 9.2.0 for MacOS (GraphPad Software, San Diego, California USA, www.graphpad.com). […]

[2] = target: T2, USP33 DUSP2 K863E-K865E (Homo sapiens, UniProt Q8TEY7, K863E/K865E); assay: FP-monitored affinity measurements, USP33 DUSP2 double mutant; type: binding
T2 construct: USP33_DUSP2; Q8TEY7; DUSP2; 806; 921; 6xHis-GST (N, cleaved yes); made in house; host or cells: Escherichia coli BL21-Gold (DE3)
T2 sequence (Q8TEY7 806-921 K863E/K865E): T1 sequence (Q8TEY7 806-921 N835A) with A30N, K58E, K60E
Description: as §1, §2

[3] = target: T3, USP33 DUSP2 domain (Homo sapiens, UniProt Q8TEY7); assay: FP-monitored affinity measurements, USP33 DUSP2; type: binding; settings: USP33_DUSP2; direct FP titration (saturation) of the FITC-labelled peptide; read-out: KD
T3 construct: USP33_DUSP2; Q8TEY7; DUSP2; 806; 921; 6xHis-GST (N, cleaved yes); made in house; host or cells: Escherichia coli BL21-Gold (DE3)
T3 sequence (Q8TEY7 with tags, fused parts or gaps): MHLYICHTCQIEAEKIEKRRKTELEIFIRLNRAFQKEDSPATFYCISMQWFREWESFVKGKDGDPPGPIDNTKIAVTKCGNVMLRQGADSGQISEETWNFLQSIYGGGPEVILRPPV
Description: Proteins were expressed in Escherichia coli (E.coli) BL21-Gold (DE3) bacteria. The cDNAs encoding N-terminal 6-histidine-glutathione S-transferase tagged (6xHis-GST), 6xHis-tagged or GST-tagged protein domains in pETM33, pETM11, pGEX6P1 expression vectors respectively, were obtained from Genescript or kindly provided by MRC-PPU (Suppl. Data 1) The bacteria were transformed with the plasmid and grew at 37 °C in 2YT (5 g/L NaCl, 16 g/L tryptone and 10 g/L yeast extract) supplemented with Kanamycin (30 μg/mL) until reaching an OD600 of 0.7. Protein expression was induced with 0.3 mM isopropyl β-D-1 thiogalactopyranoside (IPTG) for 18 h at 18 °C while shaking. For zinc-finger domains, 50 μM of ZnSO4 was added during expression. The bacterial cultures were pelleted for 15 minutes at 4000 x g at 4 °C and stored at −20 °C until purification. The pellets were resuspended in lysis buffer (1× phosphate-buffered saline (PBS), 0.5 % Triton-X, 5 mM MgCl2, 10 μg/mL lysozyme, cOmplete^TM EDTA-free protease inhibitor cocktail (Roche), 10 μg/mL DNAseI) and incubated for 1 h shaking at 4 °C. […] The supernatant was incubated with glutathione (GSH) Sepharose (Cytiva) or Ni2+ Sepharose (Cytiva) for 1 h at 4 °C while shaking. The beads with the bound protein were washed with 1x PBS and eluted with 10 mM reduced glutathione in 50 mM Tris pH 8.0. For fluorescence polarization experiments, the proteins were not eluted from the beads, and the 6xHis-GST tag was cleaved overnight on GSH Sepharose beads at 4 °C while shaking with PreScission Protease in cleavage buffer (50 mM Tris pH 7.5, 150 mM NaCl, 1 mM DTT). The sample containing the cleaved domain was separated from the tag and protease and buffer-exchanged to 50 mM sodium phosphate buffer pH 7.4 with 1 mM DTT using a PD-10 desalting column (Cytiva). The purity and size of the proteins were analyzed by SDS-PAGE electrophoresis.
The measurements were performed at room temperature in a non-binding black half area 96-well plate (Corning) with a total volume of 50 μL per well. Peptides were obtained from GeneCust (France) with >95% purity. FITC-labeled peptides (N-terminally FITC-labeled without spacer and C-terminally amidated) were dissolved in dimethyl sulfoxide (DMSO), and unlabeled peptides (N-terminally acetylated and C-terminally amidated) were dissolved in 50 mM phosphate buffer pH 7.4. Saturation measurements were performed using a serial dilution of the protein domains in phosphate buffer (25 μL) and the addition of 10 nM FITC-labeled peptide (in phosphate buffer supplemented with 2 mM DTT) (25 μL). […] All measurements were performed in three technical replicates. The data were analyzed using GraphPad Prism version 9.2.0 for MacOS (GraphPad Software, San Diego, California USA, www.graphpad.com). The saturation curves were fitted to the quadratic equation, and the displacement curves were fitted to a sigmoidal dose-response equation as described previously.

[4] = system: FLAG-USP20; assay: IP-MS of FLAG-USP20 and variants vs empty vector; type: cell-based, human; settings: IP-MS, FLAG-USP20-ΔUBP vs EV; comparison bh_2 Sample_Limma_ImpMedInt_USP20_UBP_domain/EV
Description: For transfection, 1x10^6 HEK293 cells were seeded in 10 cm dishes with DMEM, 10% FBS, 1% L-G (without antibiotic) medium, incubated at 37 °C, with 5 % CO2 for 24 h. Cells were transfected with a transfection mix containing 970 mL of Opti-MEM (Thermo Fisher Scientific), 20 μL of PEI stock (1 mg/mL) and 5 mg of the desired cDNA. For co-transfection, 2.5 μg of DNA of each plasmid was used. The mix was vortexed for 15 s and incubated at room temperature for 15–20 min. The transfection mix was added to the dish and gently mixed. Plates were incubated at 37 °C for 36–48 h before harvesting. For USP33 constructs, 5 μM Bortezomib (proteasome inhibitor) was added 4 hours before harvesting the cells.
FLAG fusion proteins were immunoprecipitated from HEK293 cells transfected with plasmids encoding the protein of interest using the anti-FLAG M2 affinity gel from Sigma-Aldrich. […] The cell lysate was clarified by centrifugation at 17,000 x g, at 4 °C for 12 min, and the supernatant was transferred to a clean, pre-chilled low-binding Eppendorf tube. […] The IP samples were centrifuged at 6500 x g at 4 °C for 30 s. The supernatant containing the unbound proteins was transferred to a clean tube. The resin was washed three times with 500 μL of TBS, centrifuged at 6500 x g at 4 °C for 30 s. The bound FLAG fusion protein was eluted with 100 μL of 150 ng/μL 3X FLAG peptide (Sigma) in TBS and incubated in the cold room for 1 h or overnight. The tube was centrifuged at 6500 x g at 4 °C for 30 s; the eluted proteins were transferred to a clean tube. The eluted proteins were prepared for analysis by western blot or Mass Spectrometry.
Immunoprecipitation (IP) was carried out as described above; four technical replicates of each IP condition were performed, and the empty vector was used as a negative control. The eluted protein was processed following the Strap-micro protocol (Protifi). The IP elution containing 1–100 μg protein was 1:1 mixed with 2X lysis buffer (10% SDS, 100 mM TEAB pH 8.5). […] Samples were vortexed, mixed with 165 μL of 100 mM TEAB in 90% methanol, and passed through an S-Trap micro column at 4000 g for 30 s to trap the proteins. The column was washed with 150 μL of 100 mM TEAB in 90% methanol (at 4,000 x g for 30 seconds) three times. The S-Trap column was centrifuged again and transferred to a clean 2 mL tube for digestion with 20 μL of digestion buffer (1 μg trypsin per 10 μg sample in 50 mM TEAB), at 37 °C overnight in a thermomixer without shaking. The digested peptides were eluted with 40 mL of 50 mM TEAB in water, 40 mL of 0.2 % formic acid in water, and 40 mL of 50 % acetonitrile in water, centrifuging at 4000 x g for 1 min each time. The three elutions were pooled in a low-binding tube, placed on dry ice until frozen, dried in a SpeedVac vacuum (Thermo Scientific), and proceeded with the LCMS analysis.
Protein groups identified with a single peptide or quantified in fewer than three replicates in at least 1 condition were filtered out. Protein group intensities were median normalized and missing values were imputed using a Gaussian distribution centered on the median with a downshift of 1.8 and width of 0.3 (relative to the standard deviation).

[5] = system: FLAG-USP33; assay: IP-MS of FLAG-USP33 and variants vs empty vector; type: cell-based, human
Description: For transfection, 1x10^6 HEK293 cells were seeded in 10 cm dishes with DMEM, 10% FBS, 1% L-G (without antibiotic) medium, incubated at 37 °C, with 5 % CO2 for 24 h. Cells were transfected with a transfection mix containing […] of Opti-MEM (Thermo Fisher Scientific), 20 μL of PEI stock (1 mg/mL) and […] of the desired cDNA. For co-transfection, 2.5 μg of DNA of each plasmid was used. The mix was vortexed for 15 s and incubated at room temperature for 15–20 min. The transfection mix was added to the dish and gently mixed. Plates were incubated at 37 °C for 36–48 h before harvesting. For USP33 constructs, 5 μM Bortezomib (proteasome inhibitor) was added 4 hours before harvesting the cells.
FLAG fusion proteins were immunoprecipitated from HEK293 cells transfected with plasmids encoding the protein of interest using the anti-FLAG M2 affinity gel from Sigma-Aldrich. Cell pellets were lysed with 100–200 μL/per dish lysis buffer (Pierce RIPA buffer, 1X protease inhibitor (Roche), 50 unit/μL of Benzonase Nuclease) rotating at 4 °C for 30–45 min. […] The cell lysate was clarified by centrifugation at 17,000 x g, at 4 °C for 12 min, and the supernatant was transferred to a clean, pre-chilled low-binding Eppendorf tube. […] The IP samples were centrifuged at 6500 x g at 4 °C for 30 s. The supernatant containing the unbound proteins was transferred to a clean tube. The resin was washed three times with 500 μL of TBS, centrifuged at 6500 x g at 4 °C for 30 s. The bound FLAG fusion protein was eluted with 100 μL of 150 ng/μL 3X FLAG peptide (Sigma) in TBS and incubated in the cold room for 1 h or overnight. The tube was centrifuged at 6500 x g at 4 °C for 30 s; the eluted proteins were transferred to a clean tube. The eluted proteins were prepared for analysis by western blot or Mass Spectrometry.
Immunoprecipitation (IP) was carried out as described above; four technical replicates of each IP condition were performed, and the empty vector was used as a negative control. The eluted protein was processed following the Strap-micro protocol (Protifi). The IP elution containing 1–100 μg protein was 1:1 mixed with 2X lysis buffer (10% SDS, 100 mM TEAB pH 8.5). […] Samples were vortexed, mixed with 165 μL of 100 mM TEAB in 90% methanol, and passed through an S-Trap micro column at 4000 g for 30 s to trap the proteins. The column was washed with 150 μL of 100 mM TEAB in 90% methanol (at 4,000 x g for 30 seconds) three times. The S-Trap column was centrifuged again and transferred to a clean 2 mL tube for digestion with 20 μL of digestion buffer (1 μg trypsin per 10 μg sample in 50 mM TEAB), at 37 °C overnight in a thermomixer without shaking. The digested peptides were eluted with […] of 50 mM TEAB in water, […] of 0.2 % formic acid in water, and […] of 50 % acetonitrile in water, centrifuging at 4000 x g for 1 min each time. The three elutions were pooled in a low-binding tube, placed on dry ice until frozen, dried in a SpeedVac vacuum (Thermo Scientific), and proceeded with the LCMS analysis.
Eluted peptides were resuspended in water supplemented with 0.015% dodecyl maltoside and 0.1% formic acid and were injected on a Vanquish Neo UHPLC System operating in trap and elute mode coupled to an Orbitrap Astral Mass Spectrometer (Thermo Fisher Scientific). […] Eluted peptides were analyzed using data-independent acquisition mode on the mass spectrometer.
Peptides were searched against the Uniprot Swissprot Human database (released on 02/01/2023) supplemented with the USP20 and USP33 mutants using DiaNN (v1.9.0)[62] operating in library-free mode. Data filtering and statistical analysis were carried out in Python (v3.9.0) using the packages pandas, numpy, sklearn, scipy, rpy2, Plotnine, and Plotly and R (v4.4.3) using the package limma.
Protein groups identified with a single peptide or quantified in fewer than three replicates in at least 1 condition were filtered out. […]

[6] = target: T4, USP20 zf-UBP domain (Homo sapiens, UniProt Q9Y2K6); assay: Peptide SPOT array, USP20 zf-UBP; type: binding; settings: array of 120 peptides probed with GST-tagged zf-UBP domains of USP20 and USP33
T4 construct: USP20_UBP; Q9Y2K6; zf-UBP; 99; 6xHis-GST (N, cleaved yes); made in house; host or cells: Escherichia coli BL21-Gold (DE3)
T4 sequence (Q9Y2K6 4-99): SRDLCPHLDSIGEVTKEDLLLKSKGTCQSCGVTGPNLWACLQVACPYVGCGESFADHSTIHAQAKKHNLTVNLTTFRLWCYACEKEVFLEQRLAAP
Description: Peptides were synthesized on cellulose membranes with standard Fluoroenylmethylox-ycarbonyl (Fmoc) chemistry using a Multipep automated synthesizer at INTAVIS (Tübingen, Germany) or ordered from JPT (PepSpots). […] The images were analyzed in Fiji (ImageJ2 version 2.9.0).

Q: With `CSCC[C@H](NC(=S)Nc1ccc2c(c1)C(=O)OC21c2ccc(O)cc2Oc2cc(O)ccc21)C(=O)N[C@@H](CC(=O)O)C(=O)N[C@@H](CC(=O)O)C(=O)N[C@@H](CC(=O)O)C(=O)N[C@@H](Cc1ccccc1)C(=O)N[C@@H](CCC(N)=O)C(=O)N[C@@H](CC(C)C)C(=O)N[C@@H](CCCNC(=N)N)C(=O)N[C@@H](CO)C(=O)N[C@@H](Cc1ccccc1)C(=O)N[C@@H](CC(=O)O)C(=O)N[C@@H](CCC(N)=O)C(=O)N[C@@H](CC(C)C)C(=O)N[C@@H](CO)C(N)=O` [FITC-HIF1A568-581] ({FITC}-MDDDFQLRSFDQLS-NH2) as the molecule, how does the Kd ([1]; FP, FITC-labeled probe peptide, single mutant domain (Fig. 5F), technical triplicate, read-out: KD, USP33 DUSP2 N835A with FITC-labeled probe peptide) read?
A: > 300 µM

Q: And the Kd ([2]; FP, FITC-labeled probe peptide, double mutant domain (Fig. 5F), technical triplicate, read-out: KD, USP33 DUSP2 K863E-K865E with FITC-labeled probe peptide)?
A: > 300 µM

Q: Which results are given for `CSCC[C@H](NC(=S)Nc1ccc2c(c1)C(=O)OC21c2ccc(O)cc2Oc2cc(O)ccc21)C(=O)N[C@@H](CC(=O)O)C(=O)N[C@@H](CC(=O)O)C(=O)N[C@@H](CC(=O)O)C(=O)N[C@@H](Cc1ccccc1)C(=O)N[C@@H](CCC(N)=O)C(=O)N[C@@H](CC(C)C)C(=O)N[C@@H](CCCNC(=N)N)C(=O)N[C@@H](CO)C(=O)N[C@@H](Cc1ccccc1)C(=O)N[C@@H](CC(=O)O)C(=O)N[C@@H](CCC(N)=O)C(=O)N[C@@H](CC(C)C)C(=O)N[C@@H](CO)C(N)=O` [FITC_HIF1A] ({FITC}-MDDDFQLRSFDQLS-NH2)?
A: Kd [3]: 31.3 µM; Kd ([1]; USP33_DUSP2_N835A, direct FP titration (saturation) of the FITC-labelled peptide, read-out: KD): ~353 µM; Kd ([2]; USP33_DUSP2_K863E/K865E, direct FP titration (saturation) of the FITC-labelled peptide, read-out: KD): ~319 µM

Q: For ESYT2, which log2_FC [4] is on record?
A: 1.764

Q: And the log2_FC ([5]; IP-MS, FLAG-USP33 UBP mutant vs EV, comparison USP33_E86K_D90R/EV, Limma)?
A: 1.582

Q: What about the log2_FC ([5]; IP-MS, FLAG-USP33 vs EV, comparison USP33_wt/EV, Limma) of the same molecule?
A: 1.824

Q: And the log2_FC ([5]; Table S7c USP33 MS_and_motif, bait USP33)?
A: 1.824

Q: For TMEM131L, which log2_FC [4] is on record?
A: 4.636

Q: How did the “binding in peptide SPOT array, USP20 versus USP33 zf-UBP” value [6] turn out when TQNLEDREVLNGVQTE [PARD3B] was run?
A: only bound to USP20
